Patent publication US7629318B2, “Immunosuppressant compounds, methods and uses related thereto” (priority 2002, dated 2009)
Values joined by “and” are separate entries in the source; they are usually repeats but may differ in a detail not shown here. Equal values may be shown once. Read-outs that look alike come from different tables or passages of the source. Square brackets hold non-standard residues; d marks the D form. Peptide text beside a SMILES is read from it. * marks the point of attachment. ξ: configuration not given here. Gly(1-amidinopiperidin-4-yl) = N=C(N)N1CCC([C@H](N)C(=O)O)CC1; Tic = O=C(O)[C@@H]1Cc2ccccc2CN1; Cha = N[C@@H](CC1CCCCC1)C(=O)O; NMe(benzyl) = CN(Cc1ccccc1)*; ξDisc = O=C(O)C1NCc2ccccc21; Nle = CCCC[C@H](N)C(=O)O; X2 = OCCOCCN(Cc1ccccc1)*; X3 = OCCOCCN*

Columns and labels:
[1] = Stability of compounds in human blood plasma; format: in vitro ADME
How it was run: (§1)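 Compounds at 5 μM final in rat, mouse or human plasma, incubated at 37 °C and sampled at 0, 6 and 24 h. Proteins precipitated with acetonitrile and the supernatant dried and reconstituted in 50% acetonitrile/0.1% TFA. PBS controls run for unstable compounds.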

[2] = Stability of compounds in rat blood plasma; format: in vitro ADME
How it was run: as §1

[3] = target: Cathepsin B1 (EC 3.4.22.1 from bovine spleen) (Bos taurus, UniProt P07688); settings: Cathepsin B, 4 h
[4] = target: T1, LG2 (DR1: DRA1*0101 DRB1*0101) cells (Homo sapiens, UniProt P01903+P01911, A100R/D57E/F55L/F60I/F76Y/I96L/L162R/M171V/P40L/Q125E/R42F/V115G/Y59C); assay: Competitive binding to MHC II proteins expressed on LG2 cells; format: cell-based; settings: Cell binding IC50 (uM) LG2 (0101), LG2 (0101)
T1 construct: MHC II Proteins Expressed on PRIESS and LG2 Cells; endogenous in cells; host or cells: LG2 cells
Method: For use in the binding assay the cells were re-suspended in medium containing 1% FCS at a density of 2.5×10^6 cells/ml.
The assay was performed in sterile 96 well polystyrene microtiter plates. A 10 fold dilution series of compounds (16 nM-1615 μM) in 1% FCS was prepared from 5 or 10 mM compound stock solutions in 10% DMSO/water. 50 μl of each compound dilution were added in duplicates to 50 μl of a 16 μM solution of indicator peptide in 1% FCS. Cell binding was initiated by adding 100 μl of 2.5×10^6 cells/ml 1% FCS to each well. Controls were included containing the DMSO concentration present in the solution with the highest compound concentration. The cells were incubated at 37° C., 6% CO2. After 4 hours the cells were washed with 200 μl PBS and lysed in 200 μl lysis buffer (50 mM sodium phosphate, 150 mM sodium chloride, 1% (w/v) NP-40, 25 mM iodoacetamide, 1 mM PMSF, 3.1% protease inhibitor cocktail: 0.32 g/l of Chymostatin, Antipain, Pepstatin A, Soybean trypsin inhibitor and Leupeptin each, pH 7.5) for 10 min.
After washing with PBS, 190 μl of cell lysate were transferred to the appropriate wells of the capture plate and incubated for 2 h at 4° C. The wells were washed six times with 200 μl/well cooled (4 to 8° C.) of 1×DELFIA wash (Wallac-ADL-GmbH, Freiburg), incubated with 100 μl of cooled Europium-streptavidin conjugate (Wallac-ADL-GmbH, Freiburg; diluted 1/1000 with DELFIA assay buffer) for 30 minutes at 4° C., again washed six times with cooled 1×DELFIA wash and, finally, incubated with 200 μl cooled DELFIA enhancement solution (Wallac-ADL-GmbH, Freiburg) for one hour at room temperature before reading the time-resolved europium fluorescence at λex Eu^3+: 340 nm and λem Eu^3+: 613 (615) nm (Wallac Victor^2 1420 Multilabel Counter, Wallac-ADL-GmbH, Freiburg).

[5] = Stability of compounds in mouse blood plasma; format: in vitro ADME
How it was run: as §1

[6] = target: DR4Dw14 (DRA1*0101 DRB1*0404) (Homo sapiens, UniProt P01903+P01911, A100R/A169T/F76Y/I96L/K127E/L162R/M171V/N62H/P40V/Q125Y/R42H/S133A/S149N/S66Y/V209L/W38E); assay: Competitive binding to MHC-II protein DR4Dw14; settings: 0404; read-out: Protein binding IC50 (nM) 0404
How it was run: (§2)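 Each MHC-II allele incubated with compound 16 hours at room temperature in duplicate; controls lacked compound, or both compound and MHC-II. Complexes captured 2 h at 4 °C, bound biotinylated peptide detected via europium-streptavidin and DELFIA enhancement, time-resolved fluorescence read at ex 340/em 613 (615) nm.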

[7] = target: DR1 (DRA1*0101 DRB1*0101) (Homo sapiens, UniProt P01903+P01911, A100R/D57E/F55L/F60I/F76Y/I96L/L162R/M171V/P40L/Q125E/R42F/V115G/Y59C); assay: Competitive binding to MHC-II protein DR1; settings: Protein binding IC50 (nM) 0101, 0101
How it was run: as §2

[8] = tested on: T-cell proliferation, DR14-LN; settings: for Immunsupressive assays DR14-LN (Max) % Inhibition: maximal inhibition; for IC50: read-out: Immunsupressive assays DR14-LN (IC50)

Row | SMILES | Stability (Arbitrary units) Human 6 h [1] [Arbitrary units] | Stability (Arbitrary units) Human 24 h [1] [Arbitrary units] | Stability (Arbitrary units) Rat 6 h [2] [Arbitrary units] | Stability (Arbitrary units) Rat 24 h [2] [Arbitrary units] | Stability (Arbitrary units) Cath B 4 h [3] [Arbitrary units] | IC50 [4] | Stability (Arbitrary units) Mouse 6 h [5] [Arbitrary units] | Stability (Arbitrary units) Mouse 24 h [5] [Arbitrary units] | IC50 [6] [nM] | IC50 [7] [nM] | Immunsupressive assays DR14-LN (Max) % Inhibition [8] | IC50 [8] [nM] | Stability (Arbitrary units) Human 6 h ([1]; human plasma, 6 h) [Arbitrary units] | Stability (Arbitrary units) Human 24 h ([1]; human plasma, 24 h) [Arbitrary units]
1 | CCCC[C@H](NC(=O)[C@@H]1Cc2ccccc2CN1C(=O)[C@@H](NC(=O)[C@H](CC1CCCCC1)NC(C)=O)C1CCN(C(=N)N)CC1)C(=O)NCCOCCO [Compound P70, Ac-Cha-Gpg-Tic-Nle-N(H)CH2CH2OCH2CH2OH] (Ac-[Cha][Gly(1-amidinopiperidin-4-yl)][Tic][Nle]-X3) | 116 | 90 | 83 | 65 | 110 | 5.7 µM | 105 | 82 | 290 | 90 | – | – | – | –
2 | CCCC[C@H](NC(=O)[C@@H]1Cc2ccccc2CN1C(=O)[C@H](CCCNC(=N)N)NC(=O)[C@H](CC1CCCCC1)NC(C)=O)C(=O)N(C)Cc1ccccc1 [Compound P71, Ac-Cha-Arg-Tic-Nle-N(Me)Bn] (Ac-[Cha]R[Tic][Nle]-{NMe(benzyl)}) | 107 | 90 | 89 | 53 | 97 | – | 117 | – | – | – | 98% and 96% | 15000 | – | –
3 | CSCC[C@H](NC(=O)C1c2ccccc2CN1C(=O)[C@@H](NC(=O)[C@H](CC1CCCCC1)NC(C)=O)C1CCN(C(=N)N)CC1)C(N)=O (stereo partly drawn) [Compound P66-1, Ac-Cha-Gpg-Disc-Met-NH2] (Ac-[Cha][Gly(1-amidinopiperidin-4-yl)][ξDisc]M-NH2) | 103 | 87 | 138 | 81 | 102 | 6 µM | 115 | 112 | 590 | 290 | – | – | – | –
4 | CCCC[C@H](NC(=O)[C@@H]1Cc2ccccc2CN1C(=O)[C@@H](NC(=O)[C@H](CC1CCCCC1)NC(C)=O)C1CCN(C(=N)N)CC1)C(=O)N(CCOCCO)Cc1ccccc1 [Compound P101, Ac-Cha-Gpg-Tic-Nle-N(Bn)CH2CH2OCH2CH2OH] (Ac-[Cha][Gly(1-amidinopiperidin-4-yl)][Tic][Nle]-X2) | – | 107 | 73 | 81 | 100 | – | 107 | 94 | 650 | 500 | 100% | 46000 | 106 | –
5 | CCCC[C@H](NC(=O)C1c2ccccc2CN1C(=O)[C@@H](NC(=O)[C@H](CC1CCCCC1)NC(C)=O)C1CCN(C(=N)N)CC1)C(=O)N(C)Cc1ccccc1 (single isomer, unassigned) [Compound P78-1] | 93 | 107 | 80 | 84 | 100 | 4.6 µM | 93 | 18 | 1400 | 550 | – | – | – | –
6 | CSCC[C@H](NC(=O)[C@@H]1Cc2ccccc2CN1C(=O)[C@H](CCCNC(=N)N)NC(=O)[C@H](CC1CCCCC1)NC(C)=O)C(N)=O [Compound P1, Ac-Cha-Arg-Tic-Met-NH2] (Ac-[Cha]R[Tic]M-NH2) | 94 | – | 11 | 0 | 87 | 8.8 µM and 6.8 µM | – | 5 | 2300 | 260 | – | – | – | –
7 | CSCC[C@H](NC(=O)C1c2ccccc2CN1C(=O)[C@H](CCCNC(=N)N)NC(=O)[C@H](CC1CCCCC1)NC(C)=O)C(N)=O (stereo partly drawn) [Compound P12-1, Ac-Cha-Arg-Disc-Met-NH2] (Ac-[Cha]R[ξDisc]M-NH2) | 75 | 0 | 67 | 10 | 96 | 9.6 µM | 76 | 38 | 860 | 430 | – | – | – | –
8 | CSCC[C@H](NC(=O)[C@@H]1Cc2ccccc2CN1C(=O)[C@@H](NC(=O)[C@H](CC1CCCCC1)NC(C)=O)C1CCN(C(=N)N)CC1)C(=O)N(CCOCCO)Cc1ccccc1 [Compound P102, Ac-Cha-Gpg-Tic-Met-N(Bn)CH2CH2OCH2CH2OH] (Ac-[Cha][Gly(1-amidinopiperidin-4-yl)][Tic]M-X2) | 110 | – | 131 | 121 | 116 | – | 105 | 101 | 2100 | 580 | 100% | 73000 | – | 116
